This note sets out measurements from patent US10786468B2, “Deacetylnemorone abietane diterpenoids for use in cancer treatment” (University of South Carolina, priority 2017, dated 2020).

Data set [1] deals with melanoma cell lines. The data set can be described thus: NCI-60 one-dose screen, melanoma cell lines. Format: cell-based. The following applies: 10 μM, 48 hours; in 6 out of 9 melanoma cell lines. The protocol:
(§1) One dose cytotoxicity screening was performed by the NCI-60 screening program of the National Institutes of Health (NIH), which is known in the art and available from the NIH. The NCI-60 panel is a collection of cancer cell lines, from various diverse tumors, which was developed in the 1980s by the National Cancer Institute to aid screening efforts for cytotoxic or cytostatic compounds.
(§2) In these screens 59 cell lines were utilized to determine the cytotoxic effect of the deacetylnemorone. […]
(§3) A control for each cell type was also simultaneously created, which was treated with 100 μL of culture media without deacetylnemorone. […] The bound stain was then dissolved in 10 mM trizma base and the absorbance was read using an automated plate reader at 515 nm.
(§4) Suspension cells were treated in the same fashion with the exception that the cells were fixed once they had settled at the bottom of the wells using 50 μL of 80% TCA. The absorbance of each well was then converted to growth percent using equation 1 (below) where Ti is the average absorbance of the samples treated with a certain concentration of the compound of this invention, Tz represents the average absorbance of the samples fixed at the time the compound of interest was added to the experimental groups, and C is the average absorbance of the media treated control. […]

The subject of data set [2] is HUVEC endothelial cells. The data set can be described thus: Tube formation assay on growth factor reduced Matrigel. It is filed as cell-based, human. Conditions: 8 hours of incubation. The protocol:
Growth factor reduced BD Matrigel (Corning), stored long-term at −20° C., was thawed on ice overnight in a 4° C. refrigerator prior to use. The following day, 50 μL of the thawed Matrigel was added to each well of a pre-chilled 96-well plate and incubated at 37° C. and 5% CO2 for approximately 30 minutes to allow the matrix to form a gel. Next, 100 μL of a cell suspension containing 20,000 HUVEC cells in cell culture media with various concentrations of deacetylnemorone was added to each well. The control consisted of HUVEC cells suspended in endothelial growth media alone. After 8 hours of incubation at 37° C. and 5% CO2, the number of tubes formed between the endothelial cells were quantified using an inverted microscope (Invitrogen EVOS FL Auto at 4× magnification).

Data set [3] deals with SK-OV-3 (ovarian adenocarcinoma) cells. The data set can be described thus: MTS assay, SK-OV-3. Format: cell-based. Conditions: SK-OV-3, 48 and 72 hours of exposure, FIG. 10. From the text:
(§5) The human cell lines used for MTS assay screening included MG-63 (osteosarcoma), SK-OV-3 (ovarian adenocarcinoma), MDA-MB-231 (breast adenocarcinoma derived from a metastatic site), HCT 116 (colorectal carcinoma), HCT 116/200 (an FdUrd resistant subclone of HCT 116 cells), A2780ADR (a doxorubicin resistant subclone of the ovarian carcinoma A2780), and HUVEC (normal human umbilical vein endothelial cells). All cells were stored in liquid nitrogen until use. MG-63, SK-OV-3, MDA-MB-231, and HCT 116 cell lines were all obtained from ATCC. A2780ADR cells were obtained from Sigma-Aldrich. HCT 116/200 cells were obtained from Dr. Franklin G. Berger from the Center for Colon Cancer Research. HUVEC cells were obtained from Lonza. MG-63 cells were maintained in MEM medium (Corning) supplemented with 10% Fetal Bovine Essence (VWR) and 1% penicillin/streptomycin solution (Corning). […]
(§6) Cells were first grown to approximately 80% confluency within […] tissue culture flasks (VWR). […] Cells were counted using a hemocytometer and their viability was confirmed using trypan blue (Gibco). […]
(§7) After seeding, the cells were incubated for 24 hours at 37° C. and 5% CO2 to allow for cell attachment and renewal of the exponential growth phase. […] The cells were incubated for 2 hours, and the absorbance of each well at 490 nm was measured using a Spectramax 190 microplate reader.

For data set [4], the system named is MG-63 (osteosarcoma) cells. The data set is described as follows: MTS assay, MG-63. Conditions: MG-63, 48 and 72 hours of exposure, FIG. 9. Format: cell-based.
Excerpt: as §5, §6, §7
(In general: Formazan colour is commonly taken as a measure of viable cells.)

Data set [5] deals with MDA-MB-231 breast cancer cells. The data set can be described thus: In vitro invasion assay (cell-free gap). Format: cell-based, human. The protocol:
Cell migration of MDA-MB-231 breast cancer cells was assessed through making a cell-free gap with a Culture Insert 2 well 24 (Ibidi), consisting of two wells that were separated by a wall. A total of 70 μl of cell suspension comprising of 35×10^3 cells was added to each well. Cells were given 24 hours to attach and reach confluency. Culture inserts were then removed and cell debris was washed with PBS. Fresh culture media supplemented with different concentration of the compound of interest was added to the wells and the cells were incubated at 37° C. and 5% CO2 for 26 hours. Images were taken 0, 6, 20, and 26 hours after compound addition using a phase contrast Nikon Eclipse Ti-E inverted microscope. Quantification of invasion was performed by measuring the gap distance for three repetitions and using the following formula,
[formula] where Wn is the width of gap after incubation, and W0 is the initial width right after forming the gap. Tube Formation Assay

Data set [6] deals with A2780ADR (doxorubicin resistant subclone of ovarian carcinoma A2780) cells. The data set can be described thus: MTS assay, A2780ADR. The following applies: 48 and 72 hours of exposure, FIG. 14. Format: cell-based.
Excerpt: as §5, §6, §7

In data set [7] the test system is HCT 116/200 (FdUrd resistant subclone of HCT 116) cells. The data set can be described thus: MTS assay, HCT 116/200. It is filed as cell-based.
Excerpt: as §5, §6, §7

Data set [8] relates to HCT 116 (colorectal carcinoma) cells. The data set can be described thus: MTS assay, HCT 116. It is filed as cell-based.
Excerpt: as §5, §6, §7

The subject of data set [9] is melanoma line SK-MEL-5. The data set can be described thus: NCI-60 one-dose screen, SK-MEL-5. Format: cell-based. Conditions: 10 μM, 48 hours. The protocol: as §1, §2, §3, §4
Data set [10] concerns MDA-MB-231 (breast adenocarcinoma) cells. The data set is described as follows: MTS assay, MDA-MB-231. It is filed as cell-based.
Excerpt: as §5, §6, §7

Data set [11] has as its system 59 cell lines of the NCI-60 panel. The data set can be described thus: NCI-60 one-dose cytotoxicity screen, 59 cell lines. Format: cell-based. The following applies: 10 μM. The protocol:
as §1, §2, §3, §4

The test system of data set [12] is SKMEL5 melanoma cells. The data set is described as follows: Cell cycle analysis (PI staining, flow cytometry). It is filed as cell-based. The protocol: The effect of the deacetylnemorone on the cell cycle of SKMEL5 melanoma cells was determined using a PI staining assay. SKMEL5 cells were maintained in RPMI 1640 media supplemented with 10% FBS and 2 mM L-glutamine and incubated at 37° C. and 5% CO2. The cells were seeded in 6 well plates at a density of 300,000 cells per well. After 24 hours, the media was removed and replaced with either fresh media (control) or with media supplemented with 17.3 μM of the deacetylnemorone of FIG. 1. The cells were incubated with this treatment for 72 hours total. At 6, 12, 24, 48, and 72 hours, the cells from two wells each of the control of the treated group were trypsinized, collected in centrifuge tubes, and centrifuged at 2500 rpm for 5 minutes. The supernatant was removed, and the pellet was washed with PBS and centrifuged 2 times. The pellet was then suspended in 500 μL PBS and added 3 mL of 70% ethanol dropwise while vortexing. This mixture was then incubated at 4° C. for 24 hours. Next, the mixture was centrifuged, the supernatant was removed and the pellet was suspended in PBS and stored at 4° C. until all the samples were collected. […]
Background: Flow cytometry measures light scatter and fluorescence of single cells or particles in a stream.

Take deacetylnemorone: the “growth inhibition of melanoma cell lines” value in data set [1] is recorded as “more than 70%”. Besides, the “tube formation between HUVEC cells” value in data set [2] (0.1 μg/mL) and in data set [2] (10 μg/mL) was “inhibit tube formation” throughout. Besides, the “cytotoxicity (percent viability, MTS)” value is reported as “significant cytotoxic properties” in data set [3]; “significant cytotoxic properties” in data set [4]; “significant cytotoxic properties” in data set [6]; “significant cytotoxic properties” in [7] (HCT 116/200, 48 and 72 hours of exposure, FIG. 13); “significant cytotoxic properties” in data set [8] (HCT-116, 48 and 72 hours of exposure, FIG. 12); “significant cytotoxic properties” in data set [10] (MDA-MB-231, 48 and 72 hours of exposure, FIG. 11). Besides, the “invasion of breast cancer cells” value is reported as “significantly inhibited” in [5] (1 μg/mL, after 26 hours); “significantly inhibited” in [5] (10 μg/mL, after 26 hours); “significantly inhibited” in data set [5] (after 20 hours of incubation). The “cytotoxic effect in combination with FdUrd (percent viability, cell number)” value in [7] (HCT 116/200, 48 hour exposure, combination with FdUrd, FIG. 16 and 17) is “dose dependent, synergistic cytotoxic effect”. Moreover, the “lowest concentration at which cell death was indicated (MTS)” value in data set [8] (colon cancer) and in [10] (breast cancer) was 10 µg/mL throughout. Also, the percent growth result in [9] is “negative percent growth”. Besides, the “number of cell lines whose growth was inhibited” value in [11] (48 hours, 59 cell lines screened) is 55 of the 59. In addition, in data set [11] (after 48 hours), the “average inhibition of percent growth across all 59 cell lines” value came to 47%. Further, in data set [12] (SKMEL5, after 24 hours, 17.3 μM (method) / 15 μM (figure legend)), the “percent of cells in S phase” value was “increase in the percent of cells in S phase”. Moreover, the sub-G1 population entry in [12] (SKMEL5, up to 72 hours) is “low sub-G1 population”.
